Results taken from PubChem BioAssay AID1919001 (Molecular Pharmacology Branch, DTP, NCI, 2023).
pIC50: −log10 of the molar value. Values joined by “and” are separate entries in the source; they are usually repeats but may differ in a detail not shown here. Equal values may be shown once.

Tested on: 699152-130-R-J1-PDC complex spheroid growth
Test: Anticancer human tumor 699152-130-R-J1-PDC patient-derived pancreatic carcinoma cell line growth inhibition [AhR]
Details: for viability, T/C: stronger effect = lower value
Procedure, shortened: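 Agents were dosed in half-log steps down from roughly clinical Cmax, or from 10 microM where Cmax was unknown, alone and with AhR antagonists. Read-out: percent test/control growth of tumor spheroids containing HUVEC and MSC stromal cells.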

[1] = curve of first compound, second compound 0.1 µM
[2] = curve of first compound, second compound 0.316 µM
[3] = curve of first compound, second compound 1 µM
[4] = curve of first compound, second compound 3.16 µM
[5] = curve of first compound, second compound 10 µM
[6] = second compound 0.1 µM, first compound 0.00949 µM
[7] = second compound 0.1 µM, first compound 0.03 µM
[8] = second compound 0.1 µM, first compound 0.0949 µM
[9] = second compound 0.1 µM, first compound 0.3 µM
[10] = second compound 0.316 µM, first compound 0.00949 µM
[11] = second compound 0.316 µM, first compound 0.03 µM
[12] = second compound 0.316 µM, first compound 0.0949 µM
[13] = second compound 0.316 µM, first compound 0.3 µM
[14] = second compound 1 µM, first compound 0.00949 µM
[15] = second compound 1 µM, first compound 0.03 µM
[16] = second compound 1 µM, first compound 0.0949 µM
[17] = second compound 1 µM, first compound 0.3 µM
[18] = second compound 3.16 µM, first compound 0.00949 µM
[19] = second compound 3.16 µM, first compound 0.03 µM
[20] = second compound 3.16 µM, first compound 0.0949 µM
[21] = second compound 3.16 µM, first compound 0.3 µM
[22] = second compound 10 µM, first compound 0.00949 µM
[23] = second compound 10 µM, first compound 0.03 µM
[24] = second compound 10 µM, first compound 0.0949 µM
[25] = second compound 10 µM, first compound 0.3 µM
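Also: compound exposure lasted 7 days after spheroids had grown for 3 days.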

CC1COCCN1c1cc(-c2ccnn2C)c2ccnc(-c3ccn[nH]3)c2n1 (configuration not stated) + Cc1cncc(-c2nc(NCCc3c[nH]c4ccccc34)c3ncn(C(C)C)c3n2)c1
pIC50 [1]: < 6.00 | pIC50 [2]: < 6.00 | pIC50 [3]: < 6.00 | pIC50 [4]: 6.31 | pIC50 [5]: > 8.50 | viability, T/C (second compound 0.1 µM, first compound 0.00316 µM): 109% | viability, T/C (second compound 0.1 µM, first compound 0.01 µM): 94.4% | viability, T/C (second compound 0.1 µM, first compound 0.0316 µM): 107% | viability, T/C (second compound 0.1 µM, first compound 0.1 µM): 96.5% | viability, T/C (second compound 0.1 µM, first compound 0.316 µM): 75.7% | viability, T/C (second compound 0.1 µM, first compound 1 µM): 64.4% | viability, T/C (second compound 0.316 µM, first compound 0.00316 µM): 119% | viability, T/C (second compound 0.316 µM, first compound 0.01 µM): 122% | viability, T/C (second compound 0.316 µM, first compound 0.0316 µM): 103% | viability, T/C (second compound 0.316 µM, first compound 0.1 µM): 88.3% | viability, T/C (second compound 0.316 µM, first compound 0.316 µM): 81.6% | viability, T/C (second compound 0.316 µM, first compound 1 µM): 62% | viability, T/C (second compound 1 µM, first compound 0.00316 µM): 127% | viability, T/C (second compound 1 µM, first compound 0.01 µM): 128% | viability, T/C (second compound 1 µM, first compound 0.0316 µM): 135% | viability, T/C (second compound 1 µM, first compound 0.1 µM): 105% | viability, T/C (second compound 1 µM, first compound 0.316 µM): 79.9% | viability, T/C (second compound 1 µM, first compound 1 µM): 64.9% | viability, T/C (second compound 3.16 µM, first compound 0.00316 µM): 77.6% | viability, T/C (second compound 3.16 µM, first compound 0.01 µM): 64.1% | viability, T/C (second compound 3.16 µM, first compound 0.0316 µM): 67.2% | viability, T/C (second compound 3.16 µM, first compound 0.1 µM): 57.4% | viability, T/C (second compound 3.16 µM, first compound 0.316 µM): 52.5% | viability, T/C (second compound 3.16 µM, first compound 1 µM): 46% | viability, T/C (second compound 10 µM, first compound 0.00316 µM): 5.06% | viability, T/C (second compound 10 µM, first compound 0.01 µM): 5.37% | viability, T/C (second compound 10 µM, first compound 0.0316 µM): 5.23% | viability, T/C (second compound 10 µM, first compound 0.1 µM): 5.76% | viability, T/C (second compound 10 µM, first compound 0.316 µM): 7.12% | viability, T/C (second compound 10 µM, first compound 1 µM): 9.33%

CCN(c1cc(-c2ccc(CN3CCOCC3)cc2)cc(C(=O)NCc2c(C)cc(C)[nH]c2=O)c1C)C1CCOCC1 + CC(CO)NC(=O)c1cc(-c2ccc(Cl)cc2)nn(-c2cnn(C)c2)c1=O
pIC50 [1]: < 5.52 | pIC50 [2]: < 5.52 | pIC50 [3]: < 5.52 | pIC50 [4]: < 5.52 | pIC50 [5]: < 5.52 | viability, T/C [6]: 97.8% | viability, T/C [7]: 105% | viability, T/C [8]: 99.2% | viability, T/C [9]: 96.2% | viability, T/C (second compound 0.1 µM, first compound 0.949 µM): 100% | viability, T/C (second compound 0.1 µM, first compound 3 µM): 102% | viability, T/C [10]: 107% | viability, T/C [11]: 99.4% | viability, T/C [12]: 96.6% | viability, T/C [13]: 94.5% | viability, T/C (second compound 0.316 µM, first compound 0.949 µM): 94.6% | viability, T/C (second compound 0.316 µM, first compound 3 µM): 99.4% | viability, T/C [14]: 105% | viability, T/C [15]: 106% | viability, T/C [16]: 108% | viability, T/C [17]: 97.3% | viability, T/C (second compound 1 µM, first compound 0.949 µM): 99.4% | viability, T/C (second compound 1 µM, first compound 3 µM): 111% | viability, T/C [18]: 97.1% | viability, T/C [19]: 89.1% | viability, T/C [20]: 104% | viability, T/C [21]: 91.2% | viability, T/C (second compound 3.16 µM, first compound 0.949 µM): 83.6% | viability, T/C (second compound 3.16 µM, first compound 3 µM): 95.1% | viability, T/C [22]: 93.9% | viability, T/C [23]: 92.2% | viability, T/C [24]: 95.1% | viability, T/C [25]: 85% | viability, T/C (second compound 10 µM, first compound 0.949 µM): 86.5% | viability, T/C (second compound 10 µM, first compound 3 µM): 87.5%

O=C(C=Cc1cccc(S(=O)(=O)Nc2ccccc2)c1)NO
viability, T/C (compound 0.0316 µM): 107% and 91.2% and 102% | viability, T/C (compound 0.1 µM): 114% and 101% and 110% | viability, T/C (compound 0.316 µM): 106% and 114% and 116% | viability, T/C (compound 1 µM): 106% and 116% and 112% | viability, T/C (compound 3.16 µM): 106% and 107% and 116% | viability, T/C (compound 10 µM): 86.2% and 96.8% and 77.4% | pIC50 (curve of compound): < 5.00

CCc1c2c(nc3ccc(O)cc13)-c1cc3c(c(=O)n1C2)COC(=O)[C@]3(O)CC + Cc1cncc(-c2nc(NCCc3c[nH]c4ccccc34)c3ncn(C(C)C)c3n2)c1
pIC50 [1]: 7.41 | pIC50 [2]: 7.48 | pIC50 [3]: 7.16 | pIC50 [4]: 7.91 | pIC50 [5]: > 9.02 | viability, T/C (second compound 0.1 µM, first compound 0.000949 µM): 96.7% | viability, T/C (second compound 0.1 µM, first compound 0.003 µM): 91.2% | viability, T/C [6]: 60.3% | viability, T/C [7]: 56.5% | viability, T/C [8]: 41% | viability, T/C [9]: 29% | viability, T/C (second compound 0.316 µM, first compound 0.000949 µM): 92.4% | viability, T/C (second compound 0.316 µM, first compound 0.003 µM): 84.3% | viability, T/C [10]: 61.3% | viability, T/C [11]: 54.4% | viability, T/C [12]: 37.6% | viability, T/C [13]: 28.7% | viability, T/C (second compound 1 µM, first compound 0.000949 µM): 102% | viability, T/C (second compound 1 µM, first compound 0.003 µM): 94.2% | viability, T/C [14]: 70% | viability, T/C [15]: 58.8% | viability, T/C [16]: 50.9% | viability, T/C [17]: 30.2% | viability, T/C (second compound 3.16 µM, first compound 0.000949 µM): 74.8% | viability, T/C (second compound 3.16 µM, first compound 0.003 µM): 66% | viability, T/C [18]: 49% | viability, T/C [19]: 43.3% | viability, T/C [20]: 32.2% | viability, T/C [21]: 23.2% | viability, T/C (second compound 10 µM, first compound 0.000949 µM): 10.7% | viability, T/C (second compound 10 µM, first compound 0.003 µM): 11.6% | viability, T/C [22]: 12.5% | viability, T/C [23]: 11.7% | viability, T/C [24]: 9.62% | viability, T/C [25]: 11%
